Assay results published in article PMC8510290, “Fishing of α-Glucosidase’s Ligands from Aloe vera by α-Glucosidase Functionalized Magnetic Nanoparticles” (Molecules, 2021).

Target: T1, α-glucosidase (Saccharomyces cerevisiae, UniProt P53341)
T1 construct: gene MAL12
Test: p-NPG hydrolysis assay (activation, maximal effect ratio) with purified enzyme; also fished out by enzyme-immobilized magnetic nanoparticles
Type: biochemical

T1 sequence (P53341 whole entry): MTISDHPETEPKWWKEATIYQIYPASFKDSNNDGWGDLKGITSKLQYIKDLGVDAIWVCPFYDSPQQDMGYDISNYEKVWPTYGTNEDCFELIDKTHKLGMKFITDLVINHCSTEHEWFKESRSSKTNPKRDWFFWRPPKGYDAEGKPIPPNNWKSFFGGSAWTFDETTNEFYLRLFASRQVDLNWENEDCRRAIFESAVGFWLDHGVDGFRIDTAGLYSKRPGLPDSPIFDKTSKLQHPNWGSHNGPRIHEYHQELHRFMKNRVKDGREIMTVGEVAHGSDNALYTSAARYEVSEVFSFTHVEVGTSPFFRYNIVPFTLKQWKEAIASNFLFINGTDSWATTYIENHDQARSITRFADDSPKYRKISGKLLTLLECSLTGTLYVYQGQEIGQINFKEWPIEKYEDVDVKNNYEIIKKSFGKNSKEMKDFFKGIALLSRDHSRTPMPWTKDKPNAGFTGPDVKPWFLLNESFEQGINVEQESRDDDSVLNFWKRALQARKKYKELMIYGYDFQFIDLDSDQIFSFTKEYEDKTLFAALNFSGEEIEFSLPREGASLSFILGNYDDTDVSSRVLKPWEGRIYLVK

Emax [%]	Compound
26.4 ± 0.8	COc1cc(-c2c(C)cc(O)cc2O)oc(=O)c1 [compound 1, aloenin aglycone]
17.8 ± 0.3	CC(=O)c1c(C[C@@H]2Cc3cc(O)cc(O)c3C(=O)O2)cc(O)cc1O[C@@H]1O[C@H](CO)[C@@H](O)[C@H](OC(=O)/C=C/c2ccc(O)cc2)[C@H]1O [compound 2, aloeacone]
